System: Leishmania sp.
Experiment: Antileishmanial activity against Leishmania sp. by MTT assay
Type: functional, organism-based
Details: not given

Row | SMILES | IC50 [µM]
1 | C=C(C)[C@H]1CC=C(C)CC1 [D-LIMONENE] | 185

System: Leishmania braziliensis
Experiment: Antileishmanial activity against Leishmania (Viannia) braziliensis promastigotes
Type: functional, organism-based
Details: not given

Row | IC50 [µM] | SMILES
2 | 27 | CC1=CC[C@H](C(C)CCNc2ccccn2)CC1 (some centres undefined)
3 | 17.2 | CCCNCCC(C)[C@H]1CC=C(C)CC1 (mixture of isomers)
4 | 254 | CC1=CC[C@H](C(C)CCNC(C)C)CC1 (mixture of isomers)
5 | 258 | CC1=CC[C@H](C(C)CCNCc2ccccc2)CC1 (mixture of isomers)
6 | 1030 | CC1=CC[C@H](C(C)CCN2CCOCC2)CC1 (mixture of isomers)
7 | 270 | CC1=CC[C@H](C(C)CCN2CCNCC2)CC1 (mixture of isomers)
8 | 12.1 | CCCN(CCC(C)[C@H]1CC=C(C)CC1)S(=O)(=O)c1ccc(C)cc1 (mixture of isomers)
9 | 11.5 | CC1=CC[C@H](C(C)CCNc2ccccc2)CC1 (mixture of isomers)
10 | 58.4 | CC1=CC[C@H](C(C)CCNc2ccc(Cl)cc2)CC1 (mixture of isomers)
11 | 57.6 | COc1ccc(NCCC(C)[C@H]2CC=C(C)CC2)cc1 (mixture of isomers)
12 | 28 | CC1=CC[C@H](C(C)CCNc2ccc(C)cc2)CC1 (mixture of isomers)
13 | 35.6 | CC1=CC[C@H](C(C)CCNCc2ccco2)CC1 (mixture of isomers)
14 | 84.6 | CC1=CC[C@H](C(C)CCNc2cccc(C(F)(F)F)c2)CC1 (mixture of isomers)
15 | 54.5 | CC1=CC[C@H](C(C)CCN(C)c2ccccc2)CC1 (mixture of isomers)
16 | 23.2 | CC1=CC[C@H](C(C)CCNCCO)CC1 (mixture of isomers)
17 | 876 | C=C(C)[C@H]1CC=C(C)CC1 [D-LIMONENE]
18 | 48.5 | N=C(N)c1ccc(OCCCCCOc2ccc(C(=N)N)cc2)cc1 [PENTAMIDINE]

System: Leishmania amazonensis
Experiment: Antileishmanial activity against Leishmania amazonensis promastigotes after 48 hrs
Type: functional, organism-based
Details: not given

Row | IC50 [µM] | SMILES
19 | 53.5 | CCCNCCC(C)[C@H]1CC=C(C)CC1 (mixture of isomers)
20 | 196 | CCCN(CCC(C)[C@H]1CC=C(C)CC1)S(=O)(=O)c1ccc(C)cc1 (mixture of isomers)
21 | 89.8 | CC1=CC[C@H](C(C)CCNc2ccccc2)CC1 (mixture of isomers)
22 | 174 | CC1=CC[C@H](C(C)CCNCCO)CC1 (mixture of isomers)

System: LLC-MK2
Experiment: Cytotoxicity against rhesus monkey LLC-MK2 cells after 48 hrs
Type: cell-based
Details: Macaca mulatta, LLC-MK2, 48 h

Row | SMILES | IC50 [µM]
23 | CCCNCCC(C)[C@H]1CC=C(C)CC1 (mixture of isomers) | 192
24 | CCCN(CCC(C)[C@H]1CC=C(C)CC1)S(=O)(=O)c1ccc(C)cc1 (mixture of isomers) | > 1010
25 | CC1=CC[C@H](C(C)CCNc2ccccc2)CC1 (mixture of isomers) | 312
26 | CC1=CC[C@H](C(C)CCNCCO)CC1 (mixture of isomers) | 587

System: not listed separately
Experiment: Selectivity index, ratio of IC50 for rhesus monkey LLC-MK2 cells to IC50 for Leishmania amazonensis promastigotes
Type: toxicity, cell-based
Details: read-out: Ratio IC50

Row | SMILES | selectivity ratio
27 | CCCNCCC(C)[C@H]1CC=C(C)CC1 (mixture of isomers) | 3.6
28 | CCCN(CCC(C)[C@H]1CC=C(C)CC1)S(=O)(=O)c1ccc(C)cc1 (mixture of isomers) | > 5.2
29 | CC1=CC[C@H](C(C)CCNc2ccccc2)CC1 (mixture of isomers) | 3.5
30 | CC1=CC[C@H](C(C)CCNCCO)CC1 (mixture of isomers) | 3.4

System: Trypanosoma cruzi
Experiment: Antitrypanosomal activity against Trypanosoma cruzi Tulahuen 2 assessed as inhibition of epimastigotes growth at 50 uM
Type: functional
Details: read-out: GI

Row | SMILES | inhibition of growth at 50 µM [%]
31 | CCCNCCC(C)[C@H]1CC=C(C)CC1 (mixture of isomers) | 21
32 | CC1=CC[C@H](C(C)CCNCc2ccccc2)CC1 (mixture of isomers) | 53.5
33 | CC1=CC[C@H](C(C)CCN2CCOCC2)CC1 (mixture of isomers) | 20.7
34 | CC1=CC[C@H](C(C)CCN2CCNCC2)CC1 (mixture of isomers) | 82.4
35 | CC1=CC[C@H](C(C)CCNc2ccccc2)CC1 (mixture of isomers) | 70.5
36 | CC1=CC[C@H](C(C)CCNCc2ccco2)CC1 (mixture of isomers) | 51.4
37 | CC1=CC[C@H](C(C)CCN(C)c2ccccc2)CC1 (mixture of isomers) | 0
38 | CC1=CC[C@H](C(C)CCNCCO)CC1 (mixture of isomers) | 41.8
39 | C=C(C)[C@H]1CC=C(C)CC1 [D-LIMONENE] | 0
40 | CC1CS(=O)(=O)CCN1/N=C/c1ccc([N+](=O)[O-])o1 (centres undefined) [NIFURTIMOX] | 100

System: Trypanosoma cruzi
Experiment: Antitrypanosomal activity against Trypanosoma cruzi Tulahuen 2 assessed as inhibition of epimastigotes growth
Type: functional, organism-based
Details: not given

Row | IC50 [µM] | SMILES
41 | > 50 | CCCNCCC(C)[C@H]1CC=C(C)CC1 (mixture of isomers)
42 | 50 | CC1=CC[C@H](C(C)CCNCc2ccccc2)CC1 (mixture of isomers)
43 | > 50 | CC1=CC[C@H](C(C)CCN2CCOCC2)CC1 (mixture of isomers)
44 | 19.2 | CC1=CC[C@H](C(C)CCN2CCNCC2)CC1 (mixture of isomers)
45 | 29.5 | CC1=CC[C@H](C(C)CCNc2ccccc2)CC1 (mixture of isomers)
46 | 50 | CC1=CC[C@H](C(C)CCNCc2ccco2)CC1 (mixture of isomers)
47 | > 50 | CC1=CC[C@H](C(C)CCN(C)c2ccccc2)CC1 (mixture of isomers)
48 | > 50 | CC1=CC[C@H](C(C)CCNCCO)CC1 (mixture of isomers)
49 | > 50 | C=C(C)[C@H]1CC=C(C)CC1 [D-LIMONENE]

System: not listed separately
Experiment: Selectivity index, ratio of IC50 for rhesus monkey LLC-MK2 cells to IC50 for Trypanosoma cruzi Tulahuen 2 epimastigotes
Type: toxicity, cell-based
Details: read-out: Ratio IC50

Row | SMILES | selectivity ratio
50 | CC1=CC[C@H](C(C)CCNc2ccccc2)CC1 (mixture of isomers) | 10.4

System: not listed separately
Experiment: Selectivity index, ratio of IC50 for rhesus monkey LLC-MK2 cells to IC50 for Leishmania (Viannia) braziliensis promastigotes
Type: toxicity, cell-based
Details: read-out: Ratio IC50

Row | SMILES | selectivity ratio
51 | CCCNCCC(C)[C@H]1CC=C(C)CC1 (mixture of isomers) | 10
52 | CCCN(CCC(C)[C@H]1CC=C(C)CC1)S(=O)(=O)c1ccc(C)cc1 (mixture of isomers) | 10
53 | CC1=CC[C@H](C(C)CCNc2ccccc2)CC1 (mixture of isomers) | 10
54 | CC1=CC[C@H](C(C)CCNCCO)CC1 (mixture of isomers) | 10

Reference: ChEMBL document CHEMBL1157048, “Synthesis and in vitro activity of limonene derivatives against Leishmania and Trypanosoma” (Eur J Med Chem, 2010)
